Results reported in US20240246964A1 (Arbutus Biopharma Corporation, priority 2021, published 2024).

Legend:
human PD-L1 = human PD-L1 (Homo sapiens (Human), UniProt Q9NZQ7); assay: T cell activation luciferase reporter cell culture system (T Cell Activation Assay); format: cell-based; conditions: luciferase reporter assay; PD-L1 aAPC/CHO-K1 cells with PD-1 effector Jurkat T cells
[1] = molecular target: PD-L1 His protein / PD-1 Fc protein (Homo sapiens (Human), UniProt Q9NZQ7); assay: HTRF Assay (PD-1/PD-L1 interaction); format: binding; conditions: PD-L1 His 6 nM, PD-1 Fc 6 nM
Sequence of PD-L1 His protein / PD-1 Fc protein (Q9NZQ7 19-238): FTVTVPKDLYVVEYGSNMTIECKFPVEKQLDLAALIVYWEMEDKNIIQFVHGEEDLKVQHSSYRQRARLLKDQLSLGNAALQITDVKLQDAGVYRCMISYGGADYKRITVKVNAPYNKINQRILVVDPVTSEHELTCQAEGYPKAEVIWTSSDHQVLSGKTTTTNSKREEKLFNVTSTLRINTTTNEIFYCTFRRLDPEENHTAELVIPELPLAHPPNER

Sequence of human PD-L1 (Q9NZQ7 19-290): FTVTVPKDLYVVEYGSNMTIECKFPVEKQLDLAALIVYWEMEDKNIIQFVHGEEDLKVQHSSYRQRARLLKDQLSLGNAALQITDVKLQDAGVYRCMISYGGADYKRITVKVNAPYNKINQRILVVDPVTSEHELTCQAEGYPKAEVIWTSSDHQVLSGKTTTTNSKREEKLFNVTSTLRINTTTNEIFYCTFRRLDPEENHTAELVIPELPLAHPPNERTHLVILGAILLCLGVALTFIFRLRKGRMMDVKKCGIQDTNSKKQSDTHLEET

## COc1cc(-c2nccc(-c3cccc(-c4ccc(CNC5CCOCC5)c(OC)n4)c3F)c2Cl)ccc1CNC1CCOCC1 [Example 440, N-((6-(3-(3-Chloro-2-(3-methoxy-4-(((tetrahydro-2H-pyran-4-yl)amino)-methyl)phenyl)pyridin-4-yl)-2-fluorophenyl)-2-methoxypyridin-3-yl)methyl)tetrahydro-2H-pyran-4-amine]
Human PD-L1
  EC50: 214 nM
[1]
  IC50: 9.97 nM

## COc1cc(-c2nccc(-c3cccc(-c4ccc(CNC5CCOCC5)c(OC)n4)c3Cl)c2Cl)ccc1CN(C)C1CCOCC1 [Example 441, N-(4-(3-chloro-4-(2-chloro-3-(6-methoxy-5-(((tetrahydro-2H-pyran-4-yl)amino)methyl)pyridin-2-yl)phenyl)pyridin-2-yl)-2-methoxybenzyl)-N-methyltetrahydro-2H-pyran-4-amine]
Human PD-L1
  EC50: 149 nM
[1]
  IC50: 5.61 nM

## COc1cc(-c2nccc(-c3cccc(-c4ccc(CNC5CCOCC5)c(OC)n4)c3Cl)c2Cl)ccc1CN(C)C1CCN(C(C)=O)CC1 [Example 442, 1-(4-((4-(3-chloro-4-(2-chloro-3-(6-methoxy-5-(((tetrahydro-2H-pyran-4-yl)amino)methyl)pyridin-2-yl)phenyl)pyridin-2-yl)-2-methoxybenzyl)(methyl)amino)piperidin-1-yl)ethan-1-one]
Human PD-L1
  EC50: 43.3 nM
[1]
  IC50: 5.94 nM

## COCCNCc1ccc(-c2nccc(-c3cccc(-c4ccc(CNCCOC)c(OC)n4)c3Cl)c2Cl)cc1OC [Example 446, N-((6-(2-chloro-3-(3-chloro-2-(3-methoxy-4-(((2-methoxyethyl)amino)methyl)phenyl)pyridin-4-yl)phenyl)-2-methoxypyridin-3-yl)methyl)-2-methoxyethan-1-amine]
Human PD-L1
  EC50: 31 nM
[1]
  IC50: 3.75 nM

## COc1cc(-c2nccc(-c3cccc(-c4ccc(CNC5CCN(C(C)=O)CC5)c(OC)n4)c3F)c2F)ccc1CNC1CCN(C(C)=O)CC1 [Example 449, 1-(4-(((6-(3-(2-(4-(((1-acetylpiperidin-4-yl)amino)methyl)-3-methoxyphenyl)-3-fluoropyridin-4-yl)-2-fluorophenyl)-2-methoxypyridin-3-yl)methyl)amino)piperidin-1-yl)ethan-1-one]
Human PD-L1
  EC50: ≥ 10000 nM
[1]
  IC50: 12.9 nM

## COc1cc(-c2nccc(-c3cccc(-c4ccc(CN[C@H]5CC[C@H](OC)CC5)c(OC)n4)c3Cl)c2Cl)ccc1CN[C@H]1CC[C@H](OC)CC1 [Example 450, (1r,4r)-N-((6-(2-Chloro-3-(3-chloro-2-(3-methoxy-4-((((1r,4r)-4-methoxycyclohexyl)amino)methyl)phenyl)pyridin-4-yl)phenyl)-2-methoxypyridin-3-yl)methyl)-4-methoxycyclohexan-1-amine]
Human PD-L1
  EC50: 54.7 nM
[1]
  IC50: 2.36 nM

## COc1cc(-c2nccc(-c3cccc(-c4ccc(CNC5CCOCC5)c(OC)n4)c3F)c2F)ccc1CNC1CCOCC1 [Example 452, N-((6-(2-Fluoro-3-(3-fluoro-2-(3-methoxy-4-(((tetrahydro-2H-pyran-4-yl)amino)methyl)phenyl)pyridin-4-yl)phenyl)-2-methoxypyridin-3-yl)methyl)tetrahydro-2H-pyran-4-amine]
Human PD-L1
  EC50: ≥ 10000 nM
[1]
  IC50: 22.6 nM

## COc1cc(-c2nccc(-c3cccc(-c4ccc(CNC5CCN(C(C)=O)CC5)c(OC)n4)c3Cl)c2Cl)ccc1CN1CCOCC1 [Example 458, 1-(4-(((6-(2-Chloro-3-(3-chloro-2-(3-methoxy-4-(morpholinomethyl)phenyl)pyridin-4-yl)phenyl)-2-methoxypyridin-3-yl)methyl)amino)piperidin-1-yl)ethan-1-one]
Human PD-L1
  EC50: 82.6 nM
[1]
  IC50: 24.6 nM

## COc1cc(-c2nccc(-c3cccc(-c4ccc(CNC5CCOCC5)c(OC)n4)c3Cl)c2C)ccc1CNC1CCOCC1 [Example 462, N-((6-(2-chloro-3-(2-(3-methoxy-4-(((tetrahydro-2H-pyran-4-yl)amino)methyl)phenyl)-3-methylpyridin-4-yl)phenyl)-2-methoxypyridin-3-yl)methyl)tetrahydro-2H-pyran-4-amine]
Human PD-L1
  EC50: 178 nM
[1]
  IC50: 6.78 nM
